Values of other authors, collected in patent publication US7759361B2, “Azabicyclooctan-3-one derivatives and use thereof” (Aprea AB, priority 2004, dated 2010).

Tested on: cells carrying mutant p53
Conditions: disclosed in WO 02/24692

SMILES: O=C1C2CCN(CC2)C1(CO)CO [PRIMA-1, 2,2-bis(hydroxymethyl)-1-azabicyclo[2.2.2]octan-3-one]
- induction of apoptosis: able to induce apoptosis
